A short description of the series: Solubility of belumosudil mesylate. Type of series: physicochemical.

Structures can show the parent of a compound that is named as a salt.

Regarding `CC(C)NC(=O)COc1cccc(-c2nc(Nc3ccc4[nH]ncc4c3)c3ccccc3n2)c1` [Belumosudil mesylate, 2-{3-[4-(1H-indazol-5-ylamino)-2-quinazolinyl]phenoxy}-N-(propan-2-yl) acetamide methanesulfonate (1:1)], the “solubility in DMSO” value (DMSO) is “soluble”. For the same molecule, the “solubility in methanol and DMF” value (methanol and DMF) is recorded as “slightly soluble”. Further, the solubility in water result (water) is reported as “practically insoluble”.

The record behind these values is US12097202B2 (Kadmon Corporation, LLC, priority 2022, dated 2024).
